Converted amounts (≈) assume the structure as drawn.

For the data set the following is noted: buffer; pH 7.4; 200.0 µM.
Regarding `Cc1c(Cl)cccc1NC(=O)C1CCN(S(C)(=O)=O)CC1`, the solubility (kinetic) (in general, solubility judged after dilution from a stock solution rather than from solid) was 16.9 µg/mL (≈ 51.1 µM).
The same measure for `Cc1ccc(S(=O)(=O)N(C)CC(=O)NNC(=O)CCNS(=O)(=O)c2cccc(C)c2)cc1`: greater than 72.4 µg/mL; for `CCN(CC)CC(=O)c1c(N)n(Cc2ccccc2)c(=O)n(C)c1=O`: 51.4 µg/mL (≈ 149 µM); for `O=C(O)/C=C\C(=O)NCc1cccnc1`: greater than 30.9 µg/mL.
The molecule `COc1ccc(CNC(=S)NCc2ccc(F)cc2)cc1OC` showed a solubility (kinetic) greater than 50.2 µg/mL.
The same measure for `COC(=O)c1c(C)[nH]c(C(=O)CC#N)c1C`: 27.2 µg/mL (≈ 124 µM); for `Cc1cc(N2CCN(C)CC2)nc(-c2ccccc2O)n1`: greater than 42.7 µg/mL.
`Cc1ccccc1NC(=O)COC(=O)CCSc1ccccc1` gave a kinetic solubility of 13.1 µg/mL (≈ 39.8 µM).
Take `CSc1ccc(/C=C/C(=O)OCC(=O)N2CCCCCC2)cc1`: the kinetic solubility was 3.8 µg/mL (≈ 11.4 µM).
Consider `COc1ccc(CNC(=O)COC(=O)c2ccc(F)c(S(=O)(=O)N3CCOCC3)c2)cc1`, for which the solubility (kinetic) is 68 µg/mL (≈ 146 µM).
The result for `Cc1ccc(NC(=O)COCC(=O)Nc2ccc(C)cc2)cc1` reads 3.1 µg/mL (≈ 9.92 µM); that for `COC(=O)[C@H](Cc1ccccc1)NC(=O)NCCc1ccccc1F`, greater than 51.7 µg/mL.
The result for `CCC(=O)NC(c1ccccc1)c1c(OC(C)=O)ccc2ccccc12` (configuration not stated) reads greater than 52.1 µg/mL; that for `COc1cccc(C(NC(C)=O)c2ccc3cccnc3c2O)c1` (configuration not stated), 44.4 µg/mL (≈ 138 µM); that for `COc1cc(/C=C/C(=O)OCC(=O)N(C)Cc2ccccc2)cc(OC)c1OC`, greater than 59.9 µg/mL.
The result for `COc1cccc(C2N(c3ccccc3)CCN2c2ccccc2)c1OC` reads 1 µg/mL (≈ 2.77 µM); that for `CC(C)Nc1nc(SC(C)C(=O)Nc2ccccc2)nc(N(C)C)n1` (configuration not stated), 26.5 µg/mL (≈ 73.5 µM).
For the molecule `Cc1cc(C)cc(NC(=S)NCc2ccncc2)c1`, the solubility (kinetic) was 20.6 µg/mL (≈ 75.9 µM).
The same measure for `C=CCn1c(O)c(C=Nc2c(C)n(C)n(-c3ccccc3)c2=O)c(=O)[nH]c1=O`: greater than 57.2 µg/mL; for `CCCCn1c(=S)[nH]c2ccc(N3CCOCC3)cc2c1=O`: 4.3 µg/mL (≈ 13.5 µM).
The result for `CCC(C)n1c(O)c(C=NCCN2CCOCC2)c(=O)[nH]c1=S` (configuration not stated) reads greater than 51.1 µg/mL; that for `O=C(CCc1ccccc1)Nc1cc2c(cc1C(=O)O)OCCCO2`, greater than 51.2 µg/mL; that for `O=C(/C=C/c1ccc([N+](=O)[O-])cc1)NCc1ccc2c(c1)OCO2`, 0.9 µg/mL (≈ 2.76 µM).
The result for `COc1ccc(NC(=S)Nc2cc(C(F)(F)F)ccc2F)cc1` reads 8.7 µg/mL (≈ 25.3 µM); that for `O=C(COc1ccc(F)cc1Br)NCCCN1CCCC1=O`, greater than 56 µg/mL.
In turn, `CCCCN1C(=O)N(c2ccccc2Cl)C(C)(O)CC1(C)C` (configuration not stated) returned a kinetic solubility of 47.6 µg/mL (≈ 147 µM).
The molecule `CC(=O)Nc1ccc(OCC(O)Cn2cncn2)cc1` (configuration not stated) yielded a kinetic solubility greater than 41.4 µg/mL.
The result for `Cc1ccccc1NC(=O)NC(C)(C)CC(C)(C)C` reads 1.3 µg/mL (≈ 4.95 µM).
The same measure for `CSc1ncccc1C(=O)Nc1ccc2c(c1)OCO2`: 30.8 µg/mL (≈ 107 µM); for `Cc1ccc(S(=O)(=O)NCC(=O)OCC(=O)NCc2ccco2)cc1`: greater than 55 µg/mL; for `COc1ccc(Cl)cc1C(=O)Nc1nc(C)cc(C)n1`: greater than 43.8 µg/mL.
The result for `O=C(O)C1C2C=CC(C2)C1C(=O)NCc1cccc(Cl)c1` (configuration not stated) reads 43.3 µg/mL (≈ 142 µM); that for `c1ccc(CNc2ncnc3sc4c(c23)CCCC4)nc1`, 6.7 µg/mL (≈ 22.6 µM); that for `CC1Cc2ccccc2N1S(=O)(=O)c1cnc(Cl)c(Cl)c1` (configuration not stated), 0.6 µg/mL (≈ 1.75 µM).
For the molecule `CCOC(=O)c1cnc2ccc(C)cc2c1N(C)Cc1ccccc1`, the solubility (kinetic) amounted to 3.8 µg/mL (≈ 11.4 µM).
The result for `COc1ccccc1C1CCN(Cc2ccccc2)CC1` reads 31.1 µg/mL (≈ 111 µM); that for `O=C(NC(=S)NNC(=O)c1ccco1)c1ccc(F)cc1`, greater than 46.1 µg/mL.
The result for `CC1CCCC(NC(=O)c2ccc(COc3ccccc3)o2)C1C` (configuration not stated) reads 2.2 µg/mL (≈ 6.72 µM); that for `O/N=C/c1ccc(-c2ccccc2OC(F)(F)F)o1`, 1.7 µg/mL (≈ 6.27 µM); that for `CC(=C\c1ccccc1)/C=C1/SC(=S)N(CCCC(=O)O)C1=O`, greater than 52.1 µg/mL.
The same measure for `COc1ccc(CCC(=O)NCC(=O)OCc2ccccc2)cc1`: greater than 49.1 µg/mL.
`c1ccc2nc(-c3nccs3)ccc2c1` had a kinetic solubility of 10.3 µg/mL (≈ 48.5 µM).
On to `C/C(=N\OCC(=O)O)c1ccc(Cl)cc1`, for which the kinetic solubility was greater than 34.1 µg/mL.
`O=C(CSc1ccc2c(c1)OCCO2)NCc1ccccc1` displayed a kinetic solubility of 44 µg/mL (≈ 140 µM).
As for `CC(Oc1ccc(-c2nnco2)cc1)C(=O)N1CCOCC1` (configuration not stated), the kinetic solubility is greater than 45.5 µg/mL.
`COc1ccc(-c2cnc(N)n2C)cc1` showed a solubility (kinetic) of 26 µg/mL (≈ 128 µM).
The result for `C=C(C)CN(Cc1ccccc1)C(=S)Nc1ccccc1` reads 1.9 µg/mL (≈ 6.41 µM); that for `N#C/C(=C/c1cccs1)c1ccccn1`, 7 µg/mL (≈ 33 µM); that for `O=S(=O)(c1ccc2oc(=S)[nH]c2c1)N1CCOCC1`, greater than 45.1 µg/mL.
The same measure for `Cc1cccc(CSc2nc3ccccc3c(=O)n2C)c1`: 1.2 µg/mL (≈ 4.05 µM).
For `CC(C(=O)O/N=C(\N)c1ccccn1)c1ccc([N+](=O)[O-])cc1` (configuration not stated), the kinetic solubility was greater than 47.1 µg/mL.
The same measure for `CCOc1ccc2[nH]c3c(NCCOC)ncnc3c2c1`: greater than 42.9 µg/mL.
